From PMC7279002, “Novel 3′-Substituted-1′,2′,4′-Oxadiazole Derivatives of 18βH-Glycyrrhetinic Acid and Their O-Acylated Amidoximes: Synthesis and Evaluation of Antitumor and Anti-Inflammatory Potential In Vitro and In Vivo” (International Journal of Molecular Sciences, 2020)

Columns and labels:
[1] = tested on: human cervical carcinoma HeLa; assay: MTT cytotoxicity assay, 48 h; type: cell-based; conditions: for IC50: Homo sapiens, HeLa, MTT, 48 h, read-out: IC50, µM Cervix HeLa; for Selectivity index: HeLa: IC50 in hFF3 / IC50 in HeLa
Method: (§1) On the first step of the biological evaluation of novel GA derivatives 3a-h, 4a-h, and 5a-h, we analyzed their cytotoxicity in a panel of cultured mammalian cells, including human cervical carcinoma HeLa and KB-3-1, human duodenal carcinoma HuTu-80, human lung adenocarcinoma A549, murine melanoma B16 cell lines, and nontransformed human fibroblasts hFF3. The cells were treated with derivatives for 48 h and cell viability was evaluated by 3-(4, 5-dimethylthiazol-2-yl)-2, 5-diphenyltetrazolium bromide (MTT) assay. Since the studied compounds contain two types of functional groups at position 3-acetoxy- or the hydroxyl-group, 3-acetoxy-GA 1 and GA-Me were used as references. Additionally, hierarchical clustering of cytotoxic data was carried out in order to reveal groups of compounds with similar cytotoxic profiles (Figure 2A).
(§2) Human cervical carcinoma HeLa and KB-3-1 cells, human duodenal carcinoma HuTu-80 cells, and human lung adenocarcinoma A549 cells were obtained from the Russian Culture Collection (Institute of Cytology, RAS, St. Petersburg, Russia). Melanoma B16-F10 (hereafter, melanoma B16) cells were obtained from the Cell Culture Bank of the Blokhin National Medical Oncology Research Center (Moscow, Russia). Nonmalignant fibroblasts hFF3 and RAW264.7 macrophages were kindly provided by Dr. Olga A. Koval (Institute of Chemical Biology and Fundamental Medicine, SB RAS, Novosibirsk, Russia) and Prof. Dmitry Kuprash (Engelhardt Institute of Molecular Biology, RAS, Moscow, Russia), respectively. The cells were cultured in DMEM (Sigma-Aldrich Inc., St. Louis, MO, USA) supplemented with 10% (v/v) heat-inactivated fetal bovine serum (FBS) (BioloT, St. Petersburg, Russia) and antibiotic–antimycotic solution (100 U/mL penicillin, 100 µg/mL streptomycin, 0.25 µg/mL amphotericin). […] The cells were incubated at 37 °C in a humidified 5% CO2-containing air atmosphere (hereafter referred to as standard conditions). GA derivatives were dissolved in DMSO (stock solutions: 10 mM) and stored at −20 °C prior to use.
(§3) Cells were seeded in tetra- or pentaplicates in 96-well plates at a density of 10^4 (tumor cells and […] fibroblasts) or 10^5 (RAW264.7 cells) cells per well. Cells were incubated under standard conditions for 24 h, followed by their treatment with the investigated derivatives (0.5–50 µM) or corresponding concentrations of DMSO (control) for a further 48 h (tumor cells and fibroblasts) or 24 h (RAW264.7 cells). At the end of incubation period, 10 µL of MTT solution was added to the cells (final concentration: 0.5 mg/mL) and plates were incubated for an additional 2 h under standard conditions. Then, the MTT-containing medium was aspirated and formazan crystals formed in living cells were solubilized with 100 µL of DMSO. The absorbance of each well was read at test and reference wavelengths of 570 and 620 nm, respectively, on a Multiscan RC plate reader (Thermo LabSystems, Helsinki, Finland). The IC50 values (the concentration of compounds leading to a decrease of A570 to 50% of A570^control) were calculated by extrapolation of the dose–response curves. […] A heatmap of SI values was constructed by Microsoft Excel 2010.

[2] = tested on: human cervical carcinoma KB-3-1; assay: MTT cytotoxicity assay, 48 h; type: cell-based; conditions: for IC50: Homo sapiens, KB 3-1, MTT, 48 h, read-out: IC50, µM Cervix KB-3-1; for Selectivity index: KB-3-1: IC50 in hFF3 / IC50 in KB-3-1
Method: as §1, §2, §3

[3] = tested on: human duodenal carcinoma HuTu-80; assay: MTT cytotoxicity assay, 48 h; type: cell-based; conditions: for IC50: Homo sapiens, HuTu80, MTT, 48 h, read-out: IC50, µM Duodenum HuTu-80; for Selectivity index: HuTu-80: IC50 in hFF3 / IC50 in HuTu-80
Method: as §1, §2, §3

[4] = tested on: human lung adenocarcinoma A549; assay: MTT cytotoxicity assay, 48 h; type: cell-based; conditions: for IC50: Homo sapiens, A549, MTT, 48 h; for Selectivity index: A549: IC50 in hFF3 / IC50 in A549
Method: as §1, §2, §3

murine melanoma B16 = assay: MTT cytotoxicity assay, 48 h; type: cell-based; conditions: for Selectivity index: B16: IC50 in hFF3 / IC50 in B16; for IC50: Mus musculus, MTT, 48 h
Method: as §1, §2, §3

[5] = tested on: nontransformed human fibroblasts hFF3; assay: MTT cytotoxicity assay, 48 h; type: cell-based; conditions: Homo sapiens, HFF-3, read-out: IC50, µM Fibroblast hFF3
Method: as §1, §2, §3

| Structure (SMILES) | IC50 [1] | Selectivity index: HeLa [1] | IC50 [2] | Selectivity index: KB-3-1 [2] | IC50 [3] | Selectivity index: HuTu-80 [3] | IC50 [4] | Selectivity index: A549 [4] | Selectivity index: B16 (murine melanoma B16) | IC50 (murine melanoma B16) | IC50 [5] | melting point |
| --- | --- | --- | --- | --- | --- | --- | --- | --- | --- | --- | --- | --- |
| CC(=O)O[C@H]1CC[C@@]2(C)C(CC[C@]3(C)C2C(=O)C=C2[C@@H]4C[C@@](C)(C(=O)O)CC[C@]4(C)CC[C@]23C)C1(C)C (stereo partly drawn) [Compound 1, 3β-acetoxy-11-oxo-18βH-olean-12-en-29-oic acid, reference compound] | 12.7 ± 1.1 µM | 1.1 | 7.4 ± 0.6 µM | 1.8 | 2.9 ± 0.1 µM | 4.7 | 15.9 ± 2.3 µM | 0.9 | 1.2 | 11.5 ± 1.5 µM | 13.6 ± 2.2 µM | – |
| CC/C(N)=N\OC(=O)[C@@]1(C)CC[C@]2(C)CC[C@]3(C)C(=CC(=O)C4[C@@]5(C)CC[C@H](OC(C)=O)C(C)(C)C5CC[C@]43C)[C@@H]2C1 (stereo partly shown) [Compound 3b] | 3.3 ± 0.2 µM | 0.9 | 6.7 ± 0.7 µM | 0.4 | 2.4 ± 0.2 µM | 1.2 | 7.3 ± 3 µM | 0.4 | 0.4 | 7.2 ± 0.6 µM | 2.9 ± 0.3 µM | 120 °C (dec.) |
| CC(=O)O[C@H]1CC[C@@]2(C)C(CC[C@]3(C)C2C(=O)C=C2[C@@H]4C[C@@](C)(C(=O)O/N=C(/N)C(C)C)CC[C@]4(C)CC[C@]23C)C1(C)C (stereo partly shown) [Compound 3c] | 3 ± 0.2 µM | 0.9 | 4.9 ± 0.4 µM | 0.5 | 2.1 ± 0.2 µM | 1.2 | 2.6 ± 0.1 µM | 1.0 | 0.5 | 5.6 ± 0.2 µM | 2.6 ± 0.1 µM | 120.3 °C (dec.) |
| CC(=O)O[C@H]1CC[C@@]2(C)C(CC[C@]3(C)C2C(=O)C=C2[C@@H]4C[C@@](C)(C(=O)O/N=C(/N)c5ccccc5)CC[C@]4(C)CC[C@]23C)C1(C)C (stereo partly shown) [Compound 3e] | 5.8 ± 0.8 µM | 1.3 | 16 ± 1.4 µM | 0.5 | 7.5 ± 0.1 µM | 1.0 | 4.9 ± 0.4 µM | 1.5 | 0.4 | 16.4 ± 0.7 µM | 7.3 ± 0.3 µM | 144.6 to 145 °C |
| CC(=O)O[C@H]1CC[C@@]2(C)C(CC[C@]3(C)C2C(=O)C=C2[C@@H]4C[C@@](C)(C(=O)O/N=C(/N)c5ccccn5)CC[C@]4(C)CC[C@]23C)C1(C)C (stereo partly shown) [Compound 3f] | 6.4 ± 1 µM | 1.2 | 10.9 ± 2.2 µM | 0.7 | 6.9 ± 0.3 µM | 1.1 | 7.7 ± 1.8 µM | 1.0 | 0.3 | 22.5 ± 3.1 µM | 7.6 ± 1 µM | 165.8 °C (dec.) |
| CC(=O)O[C@H]1CC[C@@]2(C)C(CC[C@]3(C)C2C(=O)C=C2[C@@H]4C[C@@](C)(C(=O)O/N=C(/N)c5cccnc5)CC[C@]4(C)CC[C@]23C)C1(C)C (stereo partly shown) [Compound 3g] | 6.1 ± 1 µM | 1.4 | 10 ± 0.9 µM | 0.9 | 4.9 ± 0.3 µM | 1.7 | 5.6 ± 0.9 µM | 1.5 | 1.0 | 8.9 ± 1.1 µM | 8.5 ± 0.3 µM | 149.7 °C (dec.) |
| CC(=O)O[C@H]1CC[C@@]2(C)C(CC[C@]3(C)C2C(=O)C=C2[C@@H]4C[C@@](C)(C(=O)O/N=C(/N)c5ccncc5)CC[C@]4(C)CC[C@]23C)C1(C)C (stereo partly shown) [Compound 3h] | 7.1 ± 1.4 µM | 1.6 | 7 ± 1.4 µM | 1.6 | 5.6 ± 0.1 µM | 2.0 | 7.1 ± 1.6 µM | 1.6 | 1.4 | 7.8 ± 1.9 µM | 11.1 ± 0.5 µM | 161.3 °C (dec.) |
| CC1(C)C2CC[C@]3(C)C(C(=O)C=C4[C@@H]5C[C@@](C)(c6nc(-c7cccnc7)no6)CC[C@]5(C)CC[C@]43C)[C@@]2(C)CC[C@@H]1O (stereo partly drawn) [Compound 5g, 30-nor-3β-hydroxy-11-oxo-20-(3′-(pyridin-3′′-yl)-1′,2′,4′-oxadiazol-5′-yl)-18βH-olean-12-en] | 4.6 ± 0.3 µM | > 10.9 | 16.9 ± 1.4 µM | > 3.0 | 4.7 ± 0.2 µM | > 10.6 | > 50 µM | – | – | > 50 µM | > 50 µM | 231.6 °C (dec.) |
| CC1(C)C2CC[C@]3(C)C(C(=O)C=C4[C@@H]5C[C@@](C)(c6nc(-c7ccncc7)no6)CC[C@]5(C)CC[C@]43C)[C@@]2(C)CC[C@@H]1O (stereo partly drawn) [Compound 5h, 30-nor-3β-hydroxy-11-oxo-20-(3′-(pyridin-4′′-yl)-1′,2′,4′-oxadiazol-5′-yl)-18βH-olean-12-en] | 3.5 ± 0.1 µM | > 14.3 | 4.9 ± 0.3 µM | > 10.2 | 4.7 ± 0.4 µM | > 10.6 | > 50 µM | – | – | > 50 µM | > 50 µM | 129.5 to 129.9 °C |
